Laboratory results published in paper PMC11649521 (The Journal of Physiology, 2024).

Assays:
Assay in all cases: cell-based
Details in all cases: read-out: % block at 1 μM PhTx
[1] = target: B/α (type-B iGluR/Neto-α; GluRIIB/C/D/E + Neto-α) (Drosophila melanogaster, UniProt Q0KI42+Q7KSB1+Q9VMP3+Q9VPV3)
[2] = target: A/β (type-A iGluR/Neto-β; GluRIIA/C/D/E + Neto-β) (Drosophila melanogaster, UniProt Q0KI42+Q7KSB1+Q9VMP4+Q9VPV3)
[3] = target: B/β (type-B iGluR/Neto-β; GluRIIB/C/D/E + Neto-β) (Drosophila melanogaster, UniProt Q0KI42+Q7KSB1+Q9VMP3+Q9VPV3)
Sequence of B/β (type-B iGluR/Neto-β; GluRIIB/C/D/E + Neto-β) (Q9VMP3 19-913): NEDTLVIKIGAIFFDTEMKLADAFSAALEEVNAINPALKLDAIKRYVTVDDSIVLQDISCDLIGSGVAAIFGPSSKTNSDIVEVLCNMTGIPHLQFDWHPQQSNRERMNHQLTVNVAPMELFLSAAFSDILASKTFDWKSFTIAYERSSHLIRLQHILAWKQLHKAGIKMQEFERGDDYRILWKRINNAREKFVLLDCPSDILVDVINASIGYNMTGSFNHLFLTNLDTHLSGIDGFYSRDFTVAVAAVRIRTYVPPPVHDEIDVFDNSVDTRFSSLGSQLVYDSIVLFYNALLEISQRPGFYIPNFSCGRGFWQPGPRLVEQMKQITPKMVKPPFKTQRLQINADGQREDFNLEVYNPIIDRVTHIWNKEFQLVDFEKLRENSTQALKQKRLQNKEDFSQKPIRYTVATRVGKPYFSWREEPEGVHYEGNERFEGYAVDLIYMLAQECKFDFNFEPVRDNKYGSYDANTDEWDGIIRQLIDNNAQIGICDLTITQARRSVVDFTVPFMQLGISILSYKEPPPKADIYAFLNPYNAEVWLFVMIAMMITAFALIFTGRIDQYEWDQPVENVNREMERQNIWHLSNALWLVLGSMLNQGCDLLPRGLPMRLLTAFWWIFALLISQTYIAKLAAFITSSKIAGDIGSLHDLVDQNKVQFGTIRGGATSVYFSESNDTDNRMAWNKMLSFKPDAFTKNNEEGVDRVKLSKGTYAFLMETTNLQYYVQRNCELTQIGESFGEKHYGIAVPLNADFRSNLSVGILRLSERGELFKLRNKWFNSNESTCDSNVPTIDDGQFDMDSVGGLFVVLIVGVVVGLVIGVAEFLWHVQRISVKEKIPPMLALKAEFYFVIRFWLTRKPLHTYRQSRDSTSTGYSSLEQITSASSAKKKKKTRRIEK
Sequence of B/β (type-B iGluR/Neto-β; GluRIIB/C/D/E + Neto-β) (Q9VPV3 23-940): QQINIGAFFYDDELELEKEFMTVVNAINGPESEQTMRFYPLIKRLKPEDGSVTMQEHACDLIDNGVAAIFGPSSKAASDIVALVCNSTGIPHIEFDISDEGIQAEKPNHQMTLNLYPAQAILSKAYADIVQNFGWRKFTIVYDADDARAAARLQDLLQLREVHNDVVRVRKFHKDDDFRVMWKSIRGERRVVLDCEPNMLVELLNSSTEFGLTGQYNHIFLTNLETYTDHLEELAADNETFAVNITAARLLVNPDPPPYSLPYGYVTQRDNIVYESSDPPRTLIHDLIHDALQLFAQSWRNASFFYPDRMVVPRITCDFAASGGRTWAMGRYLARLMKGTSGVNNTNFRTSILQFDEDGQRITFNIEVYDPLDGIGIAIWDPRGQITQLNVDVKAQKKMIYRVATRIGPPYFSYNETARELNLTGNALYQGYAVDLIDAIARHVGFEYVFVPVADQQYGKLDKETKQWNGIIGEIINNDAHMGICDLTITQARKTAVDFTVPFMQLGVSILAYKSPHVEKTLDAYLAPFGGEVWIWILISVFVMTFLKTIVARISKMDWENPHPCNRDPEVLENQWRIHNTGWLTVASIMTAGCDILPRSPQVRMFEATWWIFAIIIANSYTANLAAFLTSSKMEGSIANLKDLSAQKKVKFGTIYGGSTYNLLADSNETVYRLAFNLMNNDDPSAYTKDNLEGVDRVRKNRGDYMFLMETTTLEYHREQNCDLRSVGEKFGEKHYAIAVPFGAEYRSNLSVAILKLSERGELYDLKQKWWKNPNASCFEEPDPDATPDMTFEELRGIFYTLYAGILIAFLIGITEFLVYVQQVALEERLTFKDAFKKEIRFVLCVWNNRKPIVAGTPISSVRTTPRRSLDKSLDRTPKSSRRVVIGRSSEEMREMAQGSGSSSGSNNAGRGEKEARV
Sequence of B/β (type-B iGluR/Neto-β; GluRIIB/C/D/E + Neto-β) (Q7KSB1 19-902): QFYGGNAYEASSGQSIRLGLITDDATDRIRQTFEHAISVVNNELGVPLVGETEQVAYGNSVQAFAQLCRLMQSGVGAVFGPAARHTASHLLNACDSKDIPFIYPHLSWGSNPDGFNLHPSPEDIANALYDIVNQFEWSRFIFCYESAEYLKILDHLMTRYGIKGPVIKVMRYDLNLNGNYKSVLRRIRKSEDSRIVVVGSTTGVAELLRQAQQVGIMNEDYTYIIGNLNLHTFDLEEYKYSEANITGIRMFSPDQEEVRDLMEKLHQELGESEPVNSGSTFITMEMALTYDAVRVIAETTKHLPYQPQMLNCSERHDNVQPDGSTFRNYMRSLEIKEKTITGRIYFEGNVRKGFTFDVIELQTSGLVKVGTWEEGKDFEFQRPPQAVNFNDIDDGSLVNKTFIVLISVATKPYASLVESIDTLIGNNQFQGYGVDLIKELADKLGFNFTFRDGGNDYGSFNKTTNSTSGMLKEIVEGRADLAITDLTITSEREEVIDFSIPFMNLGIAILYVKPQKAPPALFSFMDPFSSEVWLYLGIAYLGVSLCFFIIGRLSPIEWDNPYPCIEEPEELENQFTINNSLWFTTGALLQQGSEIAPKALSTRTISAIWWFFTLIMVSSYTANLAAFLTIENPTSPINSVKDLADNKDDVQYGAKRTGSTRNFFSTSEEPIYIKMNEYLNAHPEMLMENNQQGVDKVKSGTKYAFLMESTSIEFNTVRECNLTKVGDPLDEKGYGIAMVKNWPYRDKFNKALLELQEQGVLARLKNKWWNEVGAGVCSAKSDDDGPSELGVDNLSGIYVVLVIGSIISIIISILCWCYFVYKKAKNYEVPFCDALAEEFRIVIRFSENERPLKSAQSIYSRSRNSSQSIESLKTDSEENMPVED
Sequence of B/β (type-B iGluR/Neto-β; GluRIIB/C/D/E + Neto-β) (Q0KI42 23-897): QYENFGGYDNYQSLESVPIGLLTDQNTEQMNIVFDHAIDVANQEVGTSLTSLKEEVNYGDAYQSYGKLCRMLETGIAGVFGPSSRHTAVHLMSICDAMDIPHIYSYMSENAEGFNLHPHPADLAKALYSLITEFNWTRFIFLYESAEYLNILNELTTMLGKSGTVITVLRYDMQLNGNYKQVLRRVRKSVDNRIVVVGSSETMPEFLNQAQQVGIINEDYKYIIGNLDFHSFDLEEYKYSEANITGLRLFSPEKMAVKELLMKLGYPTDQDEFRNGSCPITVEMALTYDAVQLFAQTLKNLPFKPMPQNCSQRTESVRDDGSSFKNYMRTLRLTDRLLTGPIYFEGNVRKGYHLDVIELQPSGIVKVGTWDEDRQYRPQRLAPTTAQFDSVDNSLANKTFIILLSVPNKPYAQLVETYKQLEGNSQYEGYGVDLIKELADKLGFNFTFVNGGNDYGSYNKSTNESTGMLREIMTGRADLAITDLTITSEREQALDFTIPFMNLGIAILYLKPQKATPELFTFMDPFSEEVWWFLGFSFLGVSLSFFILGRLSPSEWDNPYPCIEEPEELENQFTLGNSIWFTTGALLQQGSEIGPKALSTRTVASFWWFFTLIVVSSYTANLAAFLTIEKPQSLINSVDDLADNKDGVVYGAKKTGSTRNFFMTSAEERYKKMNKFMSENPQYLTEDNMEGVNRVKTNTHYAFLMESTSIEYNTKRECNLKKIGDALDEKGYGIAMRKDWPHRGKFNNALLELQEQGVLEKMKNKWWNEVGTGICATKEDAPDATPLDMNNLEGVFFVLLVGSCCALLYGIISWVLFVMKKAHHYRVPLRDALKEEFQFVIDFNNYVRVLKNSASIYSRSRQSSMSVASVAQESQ
Sequence of B/β (type-B iGluR/Neto-β; GluRIIB/C/D/E + Neto-β) (X2JDL4 127-822 partner limits assumed): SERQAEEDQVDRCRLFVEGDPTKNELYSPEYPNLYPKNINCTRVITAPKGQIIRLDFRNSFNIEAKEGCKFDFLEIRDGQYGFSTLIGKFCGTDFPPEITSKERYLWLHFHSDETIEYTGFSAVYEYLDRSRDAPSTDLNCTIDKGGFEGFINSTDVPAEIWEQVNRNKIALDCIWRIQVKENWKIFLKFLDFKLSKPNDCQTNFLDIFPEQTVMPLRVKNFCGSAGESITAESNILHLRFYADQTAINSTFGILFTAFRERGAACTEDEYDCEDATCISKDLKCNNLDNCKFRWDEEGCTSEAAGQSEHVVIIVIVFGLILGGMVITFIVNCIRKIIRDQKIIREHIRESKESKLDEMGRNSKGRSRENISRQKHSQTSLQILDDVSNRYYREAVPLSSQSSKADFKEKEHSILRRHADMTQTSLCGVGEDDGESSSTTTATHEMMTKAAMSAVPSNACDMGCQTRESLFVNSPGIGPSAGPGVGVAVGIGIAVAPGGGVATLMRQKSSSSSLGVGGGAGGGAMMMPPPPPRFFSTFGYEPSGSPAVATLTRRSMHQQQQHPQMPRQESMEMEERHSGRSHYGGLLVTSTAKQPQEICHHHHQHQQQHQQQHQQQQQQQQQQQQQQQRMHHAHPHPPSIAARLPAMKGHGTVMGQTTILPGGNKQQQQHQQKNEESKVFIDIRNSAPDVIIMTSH

Sequence of B/α (type-B iGluR/Neto-α; GluRIIB/C/D/E + Neto-α) (Q9VMP3 19-913): as the sequence (Q9VMP3 19-913) above
Sequence of B/α (type-B iGluR/Neto-α; GluRIIB/C/D/E + Neto-α) (Q9VPV3 23-940): as the sequence (Q9VPV3 23-940) above
Sequence of B/α (type-B iGluR/Neto-α; GluRIIB/C/D/E + Neto-α) (Q7KSB1 19-902): as the sequence (Q7KSB1 19-902) above
Sequence of B/α (type-B iGluR/Neto-α; GluRIIB/C/D/E + Neto-α) (Q0KI42 23-897): as the sequence (Q0KI42 23-897) above
Sequence of B/α (type-B iGluR/Neto-α; GluRIIB/C/D/E + Neto-α) (Q9VYC7 127-677 partner): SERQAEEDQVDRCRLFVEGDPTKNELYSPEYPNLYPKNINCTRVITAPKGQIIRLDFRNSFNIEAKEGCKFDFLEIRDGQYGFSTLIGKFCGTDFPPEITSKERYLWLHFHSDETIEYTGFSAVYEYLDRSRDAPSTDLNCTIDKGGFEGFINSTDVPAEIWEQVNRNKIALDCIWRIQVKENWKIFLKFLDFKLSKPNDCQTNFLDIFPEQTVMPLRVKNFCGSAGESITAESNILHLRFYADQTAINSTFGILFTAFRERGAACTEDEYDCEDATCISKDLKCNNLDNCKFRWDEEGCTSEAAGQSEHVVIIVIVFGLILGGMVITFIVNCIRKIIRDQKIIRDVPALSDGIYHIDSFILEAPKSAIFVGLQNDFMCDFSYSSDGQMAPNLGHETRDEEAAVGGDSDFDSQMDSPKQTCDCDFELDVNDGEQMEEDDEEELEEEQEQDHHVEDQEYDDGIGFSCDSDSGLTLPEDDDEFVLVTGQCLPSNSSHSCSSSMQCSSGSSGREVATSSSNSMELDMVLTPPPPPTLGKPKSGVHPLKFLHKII

CCCC(=O)N[C@@H](Cc1ccc(O)cc1)C(=O)NCCCNCCCCNCCCN [PhTx, philanthotoxin‐343]
inhibition at 1 µM [1]: 83.3 ± 5.07%
inhibition at 1 µM [2]: 98.8 ± 0.67%
inhibition at 1 µM [3]: 74.7 ± 1.72%
